In US9315498B2, “Arlethynyl derivatives” (Hoffmann-La Roche Inc., priority 2010, dated 2016):

Molecular target: human mGlu5a receptor (Homo sapiens (Human), UniProt P41594)
Assay: Intracellular Ca2+ mobilization assay (mGlu5 PAM)
Assay type: cell-based
Conditions: for EC50: HEK-293 cells stably transfected with human mGlu5a, L-glutamate added at EC20 after pre-incubation with test compound, read-out: EC50 (nM) mGlu5PAM; for Emax: maximal response in % of the maximal stimulatory effect obtained with saturating concentrations of L-glutamate, read-out: Eff. (%)
Procedure, shortened: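 HEK-293 cells stably expressing human mGlu5a at low level were loaded with Fluo-4AM and preincubated 10–30 min at 37 °C with 11-point half-log compound dilutions. L-glutamate was then added at its daily-determined EC20 (typically around 80 μM). Peak fluorescence minus basal, normalized to maximal glutamate effect, was fitted to give EC50, Hill slope and maximal response.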

Sequence of human mGlu5a receptor (P41594 other isoform, or with tags, fused parts or gaps): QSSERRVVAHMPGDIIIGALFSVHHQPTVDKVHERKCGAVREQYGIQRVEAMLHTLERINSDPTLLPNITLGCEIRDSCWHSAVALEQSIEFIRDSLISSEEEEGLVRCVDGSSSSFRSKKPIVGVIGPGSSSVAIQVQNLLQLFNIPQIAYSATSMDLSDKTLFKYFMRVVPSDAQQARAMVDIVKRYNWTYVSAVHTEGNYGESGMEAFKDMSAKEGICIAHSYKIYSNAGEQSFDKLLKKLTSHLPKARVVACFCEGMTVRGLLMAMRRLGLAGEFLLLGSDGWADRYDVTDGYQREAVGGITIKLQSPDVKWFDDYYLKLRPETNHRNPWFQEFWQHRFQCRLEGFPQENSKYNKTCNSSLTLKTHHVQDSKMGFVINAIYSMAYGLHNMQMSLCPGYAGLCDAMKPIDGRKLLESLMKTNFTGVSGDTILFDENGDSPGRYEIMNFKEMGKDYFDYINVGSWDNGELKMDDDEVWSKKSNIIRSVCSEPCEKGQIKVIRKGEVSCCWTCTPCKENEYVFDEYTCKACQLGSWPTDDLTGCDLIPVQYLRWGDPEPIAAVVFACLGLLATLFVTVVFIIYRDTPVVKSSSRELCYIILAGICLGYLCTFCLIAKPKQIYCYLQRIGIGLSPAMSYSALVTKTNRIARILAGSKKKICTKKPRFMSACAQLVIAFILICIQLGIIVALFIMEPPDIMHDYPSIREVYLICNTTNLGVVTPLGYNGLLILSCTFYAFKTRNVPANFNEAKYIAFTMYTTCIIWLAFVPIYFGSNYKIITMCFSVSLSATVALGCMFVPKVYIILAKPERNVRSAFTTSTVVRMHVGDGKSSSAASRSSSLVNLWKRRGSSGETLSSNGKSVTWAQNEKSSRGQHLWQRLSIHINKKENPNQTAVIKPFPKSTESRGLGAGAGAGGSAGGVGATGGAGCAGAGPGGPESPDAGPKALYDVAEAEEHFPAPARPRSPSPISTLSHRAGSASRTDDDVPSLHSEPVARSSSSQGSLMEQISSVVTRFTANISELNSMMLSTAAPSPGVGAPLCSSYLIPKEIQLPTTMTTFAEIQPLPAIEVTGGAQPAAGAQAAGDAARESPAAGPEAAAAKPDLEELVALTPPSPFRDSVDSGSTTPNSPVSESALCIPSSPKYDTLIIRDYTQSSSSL

**Q.** What does the source list for `CC1(C)OC(=O)N(c2ccc(C#Cc3ccccc3)cn2)CC1O` (racemic) [Example 95, (RS)-5-Hydroxy-6,6-dimethyl-3-(5-phenylethynyl-pyridin-2-yl)-[1,3]oxazinan-2-one]?
**A.** EC50: 47 nM; Emax: 118%

**Q.** `O=C1OC2(CCC2)CN1c1ccc(C#Cc2ccccc2)cn1` [Example 10, 7-(5-Phenylethynyl-pyridin-2-yl)-5-oxa-7-aza-spiro[3.4]octan-6-one] was tested. Which EC50 did it give?
**A.** The EC50 was 25 nM.

**Q.** And the Emax?
**A.** Its Emax is 109%.

**Q.** What does the source list for `CC1(C)CCC(=O)N(c2ccc(C#Cc3cccc(F)c3)cn2)C1` [Example 43, 5′-(3-Fluoro-phenylethynyl)-5,5-dimethyl-3,4,5,6-tetrahydro-[1,2′]bipyridinyl-2-one]?
**A.** EC50: 12 nM; Emax: 100%

**Q.** With `CCN1C(=O)N(c2ccc(C#Cc3ccccc3)cn2)C2CCCCC21` (stereo not drawn) [Example 99, (3aSR,7aRS)-(3aRS,7RS)-1-Ethyl-3-(5-phenylethynyl-pyridin-2-yl)-octahydro-benzoimidazol-2-one] as the compound, how does the EC50 read?
**A.** The EC50 was 18 nM.

**Q.** What about the Emax of the same compound?
**A.** Its Emax is 90%.

**Q.** Which results are given for `COC1C(=O)N(c2ccc(C#Cc3cncc(Cl)c3)cn2)CC1(C)C` (racemic) [Example 63, (RS)-1-[5-(5-Chloro-pyridin-3-ylethynyl)-pyridin-2-yl]-3-methoxy-4,4-dimethyl-pyrrolidin-2-one]?
**A.** EC50: 70 nM; Emax: 99%
